The record followed here is US11576380B2 (priority 2017, dated 2023).

Where two headings read alike, the source gives them in different places.

The test system of experiment [1] is Pyricularia oryzae. Nature of the experiment: microbe, parasite or virus in culture. Format: cell-based. The conditions noted are these: for benzovindiflupyr (B) inhibition (%): Table 1; for benzovindiflupyr (B) inhibition (%) / azoxystrobin (B) inhibition (%): 72 hours; for azoxystrobin (B) inhibition (%): Table 2.
The test system of experiment [2] is Mycosphaerella arachidis. Nature of the experiment: Liquid culture test in well plates, Mycosphaerella arachidis syn. Cercospora arachidicola (peanut brown leaf spot), Example 6. The class given is cell-based. To be noted: Table 4, approximately 5-6 days. The procedure: The compositions according to the invention are tested for their biological (fungicidal) activity as dimethylsulfoxide (DMSO) solutions using one or more of the following protocols (Examples 2 to 8). A standard description of the liquid culture tests is provided in Example 1.
Mycelia fragments or conidia suspensions of a fungus, prepared either freshly from liquid cultures of the fungus or from cryogenic storage, are directly mixed into nutrient broth. DMSO solutions of the test compound (max. 10 mg/mL) is diluted with 0.025% Tween20 by factor 50 and 10 μL of this solution is pipetted into a microtiter plate (96-well format). The nutrient broth containing the fungal spores/mycelia fragments is then added to give an end concentration of the tested compound. The test plates are incubated in the dark at 24° C. and 96% relative humidity (rh). The inhibition of fungal growth is determined photometrically and visually after 3-7 days, depending on the pathosystem, and percent antifungal activity relative to the untreated check is calculated.
Conidia of the fungus from cryogenic storage were directly mixed into nutrient broth (PDB potato dextrose broth). After placing a DMSO solution of the test compositions into a microtiter plate (96-well format), the nutrient broth containing the fungal spores was added. The test plates were incubated at 24° C. and the inhibition of growth was determined photometrically after approximately 5-6 days.

For the compound `Cn1cc(C(=O)Nc2cccc3c2[C@@H]2CC[C@H]3C2=C(Cl)Cl)c(C(F)F)n1` (racemic) [benzovindiflupyr], the “benzovindiflupyr (B) inhibition (%)” value in experiment [1] (benzovindiflupyr alone 0.0125 ppm) was found to be 20%; in experiment [1] (benzovindiflupyr alone 0.0250 ppm), 50%; in experiment [1] (benzovindiflupyr alone 0.0500 ppm) it was 70%; in experiment [1] (benzovindiflupyr alone 0.1000 ppm) it was 90%.
On to `CO/C=C(/C(=O)OC)c1ccccc1Oc1cc(Oc2ccccc2C#N)ncn1` [azoxystrobin], for which the “azoxystrobin (B) inhibition (%)” value in experiment [1] (azoxystrobin alone 0.0250 ppm), in experiment [1] (azoxystrobin alone 0.0500 ppm), in experiment [1] (azoxystrobin alone 0.1000 ppm) and in experiment [1] (azoxystrobin alone 0.2000 ppm) was 0% in each case.
As for `N#Cc1c(Cl)c(Cl)c(Cl)c(C#N)c1Cl` [chlorothalonil], in experiment [1] (Pyricularia oryzae, 72 h, read-out: chlorothalonil (B) inhibition (%), Table 3, chlorothalonil alone 0.2500 ppm), the inhibition at 0.25 ppm was 0%. Moreover, in experiment [1] (Pyricularia oryzae, 72 h, read-out: chlorothalonil (B) inhibition (%), Table 3, chlorothalonil alone 0.5000 ppm), the inhibition at 0.5 ppm is 0%. Besides, the inhibition at 1 ppm in experiment [1] (Pyricularia oryzae, 72 h, read-out: chlorothalonil (B) inhibition (%), Table 3, chlorothalonil alone 1.0000 ppm) came to 20%.
For the compound `COc1ccnc(C(=O)N[C@@H](C)C(=O)O[C@@H](C)C(c2ccc(F)cc2)c2ccc(F)cc2)c1OC(C)=O` [florylpicoxamid, (1S)-2,2-bis(4-fluorophenyl)-1-methylethyl N-{[3-(acetyloxy)-4-methoxy-2-pyridyl]carbonyl}-L-alaninate], the inhibition at 0.0031 ppm in experiment [1] (Pyricularia oryzae, 72 h, read-out: florylpicoxamid (A) inhibition (%), Table 1, florylpicoxamid alone 0.0031 ppm) was 0%. The inhibition at 0.0063 ppm in experiment [1] (Pyricularia oryzae, 72 h, read-out: florylpicoxamid (A) inhibition (%), Table 1, florylpicoxamid alone 0.0063 ppm) came to 0%. Moreover, the inhibition at 0.0125 ppm in experiment [1] (Pyricularia oryzae, 72 h, read-out: florylpicoxamid (A) inhibition (%), Table 1, florylpicoxamid alone 0.0125 ppm) was 0%. Moreover, the inhibition at 0.025 ppm is 0% in experiment [1] (Pyricularia oryzae, 72 h, read-out: florylpicoxamid (A) inhibition (%), Table 1, florylpicoxamid alone 0.0250 ppm); 0% in experiment [1] (Pyricularia oryzae, 72 h, read-out: florylpicoxamid (A) inhibition (%), Table 3, florylpicoxamid alone 0.0250 ppm); 4% in experiment [2] (Mycosphaerella arachidis, florylpicoxamid alone 0.0250 ppm). Further, the inhibition at 0.05 ppm was determined as 0% in experiment [1] (Pyricularia oryzae, 72 h, read-out: florylpicoxamid (A) inhibition (%), Table 1, florylpicoxamid alone 0.0500 ppm); 20% in experiment [1] (Pyricularia oryzae, 72 h, read-out: florylpicoxamid (A) inhibition (%), Table 3, florylpicoxamid alone 0.0500 ppm); 15% in experiment [2] (Mycosphaerella arachidis, florylpicoxamid alone 0.0500 ppm). Also, the inhibition at 0.1 ppm in experiment [1] (Pyricularia oryzae, 72 h, read-out: florylpicoxamid (A) inhibition (%), Table 1, florylpicoxamid alone 0.1000 ppm) stood at 20%; in experiment [1] (Pyricularia oryzae, 72 h, read-out: florylpicoxamid (A) inhibition (%), Table 2, florylpicoxamid alone 0.1000 ppm) it was 20%; in experiment [1] (Pyricularia oryzae, 72 h, read-out: florylpicoxamid (A) inhibition (%), Table 3, florylpicoxamid alone 0.1000 ppm), 30%; in experiment [2] (Mycosphaerella arachidis, florylpicoxamid alone 0.1000 ppm), 38%. The inhibition at 0.2 ppm in experiment [1] (Pyricularia oryzae, 72 h, read-out: florylpicoxamid (A) inhibition (%), Table 2, florylpicoxamid alone 0.2000 ppm) was determined as 50%; in experiment [1] (Pyricularia oryzae, 72 h, read-out: florylpicoxamid (A) inhibition (%), Table 3, florylpicoxamid alone 0.2000 ppm) it was 60%.
As to `CON(C(=O)c1cn(C)nc1C(F)F)C(C)Cc1c(Cl)cc(Cl)cc1Cl` (stereo not drawn) [pydiflumetofen], the “pydiflumetofen (B) inhibition (%)” value was determined as 1% in experiment [2] (pydiflumetofen alone 0.0025 ppm), 0% in experiment [2] (pydiflumetofen alone 0.0050 ppm), 28% in experiment [2] (pydiflumetofen alone 0.0100 ppm) and 70% in experiment [2] (pydiflumetofen alone 0.0200 ppm).
